Converted amounts (≈) assume the structure as drawn. Where two headings read alike, the source gives them in different places.
Legend:
[1] = system: E coli wild type; test: MIC by broth microdilution, wild type E coli; assay type: cell-based; details: Escherichia coli
[2] = system: rabbit reticulocyte ribosomes; test: in-vitro translation assay, rabbit reticulocyte ribosomes; assay type: biochemical; details: mammalian cytosolic ribosomes (rabbit)
[3] = system: M. smegmatis SZ380; test: MIC by broth microdilution, M. smegmatis; details: Mycolicibacterium smegmatis
[4] = system: MRSA; test: MIC by broth microdilution, MRSA isolates; assay type: cell-based; details: for MIC50 / MIC: Staphylococcus aureus, MRSA
[5] = system: A1555G mutant mitochondrial ribosome (human chimeric); test: in-vitro translation assay, human chimeric ribosomes, A1555G mutant mitochondrial decoding site; assay type: biochemical; details: human mitochondrial decoding site with A1555G point mutation; read-out: IC50 Mitoch. A1555G
Source text: (§1) The antiribosomal activity of these compounds was investigated with cell-free translation assays using both wild type bacterial ribosomes and hybrid ribosomes carrying eukaryotic decoding A sites enabling the prediction of selectivity.

[6] = system: N. gonorrhoeae; test: Disk diffusion, N. gonorrhoeae; assay type: cell-based; details: Neisseria gonorrhoeae
[7] = system: Enterobacter cloacae AG290; test: MIC by broth microdilution, Enterobacter cloacae; assay type: cell-based; details: strain AG290 Enterobacter cloacae; read-out: MIC AG290 E. cloacae
[8] = system: cytosolic ribosome (human chimeric); assay type: biochemical
Source text: as §1

[9] = system: mitochondrial ribosome (human chimeric); assay type: biochemical
Source text: as §1

[10] = system: P aeruginosa; test: MIC by broth microdilution, P aeruginosa isolates; assay type: cell-based, Pseudomonas aeruginosa; details: for MIC50 / MIC: Pseudomonas aeruginosa

**Q.** NC[C@@H]1O[C@H](O[C@H]2[C@@H](O)[C@H](O[C@@H]3[C@@H](O)[C@H](N)C[C@H](N)[C@H]3O[C@H]3O[C@H](CO)[C@@H](O)[C@H](O)[C@H]3N)O[C@@H]2CO)[C@H](N)[C@@H](O)[C@@H]1O [paromomycin, reference compound] was tested. Which MIC ([1]; AG006 wt, Table 2 (Example 1), read-out: MIC E coli AG006 wt) did it give?
**A.** 1 to 2 µg/mL (≈ 1.62 to 3.25 µM)

**Q.** And the MIC ([1]; AG102 wt, Table 2 (Example 1), read-out: MIC E coli AG102 wt)?
**A.** 1 µg/mL (≈ 1.62 µM)

**Q.** And the MIC ([1]; AG160 wt, Table 2 (Example 1), read-out: MIC E coli AG160 wt)?
**A.** 2 to 4 µg/mL (≈ 3.25 to 6.5 µM)

**Q.** What about the MIC ([1]; ATCC25922, strain AG212 E. coli (ATCC25922), read-out: MIC AG212 E. coli) of the same compound?
**A.** 2 to 4 µg/mL (≈ 3.25 to 6.5 µM)

**Q.** What about the MIC50 ([1]; BM13 (AG06) wt, Table 2A (Example 2), read-out: MIC50 E coli BM13 (AG06) wt) of the same compound?
**A.** 2 to 4 µg/mL (≈ 3.25 to 6.5 µM)

**Q.** And the MIC ([1]; E. coli strain pH430, WT, read-out: MIC pH430 WT)?
**A.** 1 to 2 µg/mL (≈ 1.62 to 3.25 µM)

**Q.** What about the MIC ([1]; WT, Table 3 (Example 1), read-out: MIC WT) of the same compound?
**A.** 1 to 2 µg/mL (≈ 1.62 to 3.25 µM)

**Q.** And the MIC ([1]; WT, Table 3 (Example 2), read-out: MIC WT)?
**A.** 1 to 2 µg/mL (≈ 1.62 to 3.25 µM)

**Q.** What about the MIC ([1]; WT, Table 4 (Example 3), read-out: MIC E. coli WT) of the same compound?
**A.** 1 to 2 µg/mL (≈ 1.62 to 3.25 µM)

**Q.** And the MIC ([1]; WT, Table 5 (Example 3), read-out: MIC E. coli WT)?
**A.** 1 to 2 µg/mL (≈ 1.62 to 3.25 µM)

**Q.** What about the MIC ([1]; clinical isolate AG001, WT, read-out: MIC AG001 E. coli WT) of the same compound?
**A.** 2 µg/mL (≈ 3.25 µM)

**Q.** And the MIC ([1]; clinical isolate AG001, Table 1 (Example 3), read-out: MIC E coli AG001)?
**A.** 16 to 32 µg/mL (≈ 26 to 52 µM)

**Q.** What about the MIC ([1]; clinical isolate AG003, Table 1 (Example 3), read-out: MIC E coli AG003) of the same compound?
**A.** 8 to 16 µg/mL (≈ 13 to 26 µM)

**Q.** What about the MIC ([1]; clinical isolate AG055, WT, read-out: MIC AG055 E. coli WT) of the same compound?
**A.** 2 µg/mL (≈ 3.25 µM)

**Q.** And the MIC ([1]; clinical isolate AG055, Table 1 (Example 3), read-out: MIC E coli AG055)?
**A.** 8 µg/mL (≈ 13 µM)

**Q.** What about the MIC ([1]; clinical isolate AG160 WT, Table 2 (Example 4), read-out: MIC AG160 E. coli WT) of the same compound?
**A.** 2 to 4 µg/mL (≈ 3.25 to 6.5 µM)

**Q.** What about the MIC ([1]; engineered strain pH430 WT, Table 2 (Example 4), read-out: MIC pH430 E. coli WT) of the same compound?
**A.** 1 to 2 µg/mL (≈ 1.62 to 3.25 µM)

**Q.** And the MIC50 ([1]; read-out: MIC50 E coli pH430 WT)?
**A.** 1 to 2 µg/mL (≈ 1.62 to 3.25 µM)

**Q.** And the MIC ([1]; read-out: MIC E coli AG006 Wild type, AG006 Wild type, Table 2 (Example 3))?
**A.** 2 µg/mL (≈ 3.25 µM)

**Q.** And the MIC ([1]; read-out: MIC E coli AG104 Wild type, AG104 Wild type, Table 2 (Example 3))?
**A.** 2 µg/mL (≈ 3.25 µM)

**Q.** And the MIC50 ([1]; strain AG01, Table 1 (Example 1), read-out: MIC50 E coli AG01)?
**A.** 2 to 4 µg/mL (≈ 3.25 to 6.5 µM)

**Q.** And the MIC50 ([1]; strain AG01, Table 1 (Example 2), read-out: MIC50 E coli AG01)?
**A.** 2 to 4 µg/mL (≈ 3.25 to 6.5 µM)

**Q.** What about the MIC50 ([1]; strain AG03, Table 1 (Example 1), read-out: MIC50 E coli AG03) of the same compound?
**A.** 4 µg/mL (≈ 6.5 µM)

**Q.** And the MIC50 ([1]; strain AG03, Table 1 (Example 2), read-out: MIC50 E coli AG03)?
**A.** 4 µg/mL (≈ 6.5 µM)

**Q.** What about the MIC50 ([1]; strain AG55, Table 1 (Example 1), read-out: MIC50 E coli AG55) of the same compound?
**A.** 2 to 4 µg/mL (≈ 3.25 to 6.5 µM)

**Q.** And the MIC50 ([1]; strain AG55, Table 1 (Example 2), read-out: MIC50 E coli AG55)?
**A.** 2 to 4 µg/mL (≈ 3.25 to 6.5 µM)

**Q.** What about the IC50 [2] of the same compound?
**A.** 21 µM

**Q.** And the MIC ([3]; SZ380, read-out: MIC M. smegmatis SZ380 WT, SZ380 WT, Table 5 (Example 3))?
**A.** 1 µg/mL (≈ 1.62 µM)

**Q.** And the MIC ([3]; SZ380, read-out: MIC SZ380 M. smegmatis, strain SZ380 Mycobacterium smegmatis)?
**A.** 1 µg/mL (≈ 1.62 µM)

**Q.** What about the MIC50 ([4]; read-out: MIC50 MRSA AG39) of the same compound?
**A.** > 256 µg/mL

**Q.** And the MIC50 ([4]; read-out: MIC50 MRSA AG42)?
**A.** > 256 µg/mL

**Q.** And the MIC ([4]; read-out: MIC AG039 MRSA AAC(6′)-I ANT(4′)-I)?
**A.** > 256 µg/mL

**Q.** What about the MIC ([4]; read-out: MIC AG042 MRSA AAC(6′)-I ANT(4′)-I APH(2′)) of the same compound?
**A.** > 256 µg/mL

**Q.** What about the MIC ([4]; read-out: MIC MRSA AG039) of the same compound?
**A.** > 256 µg/mL

**Q.** What about the MIC ([4]; read-out: MIC MRSA AG042) of the same compound?
**A.** > 256 µg/mL

**Q.** And the MIC50 ([4]; strain AG38, Table 1 (Example 1), read-out: MIC50 MRSA AG38)?
**A.** 4 µg/mL (≈ 6.5 µM)

**Q.** What about the MIC50 ([4]; strain AG38, Table 1 (Example 2), read-out: MIC50 MRSA AG38) of the same compound?
**A.** 4 µg/mL (≈ 6.5 µM)

**Q.** And the MIC50 ([4]; strain AG44, Table 1 (Example 1), read-out: MIC50 MRSA AG44)?
**A.** 4 to 8 µg/mL (≈ 6.5 to 13 µM)

**Q.** What about the MIC50 ([4]; strain AG44, Table 1 (Example 2), read-out: MIC50 MRSA AG44) of the same compound?
**A.** 4 to 8 µg/mL (≈ 6.5 to 13 µM)

**Q.** And the MIC ([4]; clinical isolate AG038, Table 1 (Example 3), read-out: MIC MRSA AG038)?
**A.** 4 µg/mL (≈ 6.5 µM)

**Q.** And the MIC ([4]; clinical isolate AG038, read-out: MIC AG038 MRSA)?
**A.** 4 µg/mL (≈ 6.5 µM)

**Q.** And the MIC ([4]; clinical isolate AG044, Table 1 (Example 3), read-out: MIC MRSA AG044)?
**A.** 4 to 8 µg/mL (≈ 6.5 to 13 µM)

**Q.** What about the MIC ([4]; clinical isolate AG044, read-out: MIC AG044 MRSA) of the same compound?
**A.** 4 to 8 µg/mL (≈ 6.5 to 13 µM)

**Q.** What about the “MIC50 MRSA AG39” value ([4]; strain AG39, Table 1 (Example 2)) of the same compound?
**A.** >256 µg/mL

**Q.** What about the “MIC50 MRSA AG42” value ([4]; strain AG42, Table 1 (Example 2)) of the same compound?
**A.** >256 µg/mL

**Q.** And the IC50 [5]?
**A.** 15 µM

**Q.** What about the zone of inhibition at 25 nmol/disc [6] of the same compound?
**A.** 9 mm

**Q.** And the MIC [7]?
**A.** 2 µg/mL (≈ 3.25 µM)

**Q.** What about the IC50 ([8]; cytosolic, Table 3 (Example 1), read-out: IC50 Cyt) of the same compound?
**A.** 31 µM

**Q.** What about the IC50 ([8]; cytosolic, Table 3 (Example 2), read-out: IC50 Cyt) of the same compound?
**A.** 31 µM

**Q.** What about the IC50 ([8]; cytosolic, Table 4 (Example 3), read-out: IC50 Cyt) of the same compound?
**A.** 31 µM

**Q.** What about the IC50 ([8]; ribosomes with a human cytosolic decoding site, read-out: IC50 Cytosolic) of the same compound?
**A.** 31 µM

**Q.** And the IC50 ([9]; mitochondrial, Table 3 (Example 1), read-out: IC50 Mit)?
**A.** 140 µM

**Q.** What about the IC50 ([9]; mitochondrial, Table 3 (Example 2), read-out: IC50 Mit) of the same compound?
**A.** 140 µM

**Q.** And the IC50 ([9]; mitochondrial, Table 4 (Example 3), read-out: IC50 Mit)?
**A.** 140 µM

**Q.** And the IC50 ([9]; ribosomes with a human mitochondrial decoding site, read-out: IC50 Mitoch.)?
**A.** 140 µM

**Q.** And the MIC50 ([10]; read-out: MIC50 P aeruginosa AG31)?
**A.** > 128 µg/mL

**Q.** What about the MIC50 ([10]; read-out: MIC50 P aeruginosa AG32) of the same compound?
**A.** > 128 µg/mL

**Q.** And the MIC50 ([10]; read-out: MIC50 P aeruginosa AG33)?
**A.** > 128 µg/mL

**Q.** And the MIC50 ([10]; read-out: MIC50 P aeruginosa AG86)?
**A.** > 128 µg/mL

**Q.** And the MIC ([10]; read-out: MIC AG031 P. aer. APH(3′)-II)?
**A.** > 128 µg/mL

**Q.** What about the MIC ([10]; read-out: MIC AG032 P. aer. APH(3′)-II) of the same compound?
**A.** > 128 µg/mL

**Q.** And the “MIC50 P aeruginosa AG31” value ([10]; strain AG31, Table 1 (Example 2))?
**A.** >128 µg/mL

**Q.** And the “MIC50 P aeruginosa AG32” value ([10]; strain AG32, Table 1 (Example 2))?
**A.** >128 µg/mL

Reference: US11466044B2 (WAYNE STATE UNIVERSITY, priority 2017, dated 2022)
